Experimental data as given in patent US9512140B2, “(Thieno[2,3-b][1,5]benzoxazepin-4-yl)piperazin-1-yl compounds as dual activity H1 inverse agonists/5-HT2A antagonists” (priority 2011, dated 2016).

Tested on: Rats
Assay: Sleep and behavioral monitoring in rats (EEG, EMG, motion)
Assay type: in vivo
Conditions: for Rebound Insomnia, Adj. Mean: NREM+REM sleep in 7th-9th hours post-treatment; for Rebound Insomnia, Adj. Mean / REM inhibition, Adj. Mean / Cumulative Total sleep, Adj. Mean / Locomotor Activity Intensity, Adj. Mean: difference from vehicle; for REM inhibition, Adj. Mean: cumulative REM sleep, first 12 hr. post-treatment; for Average Sleep Bout, Adj. Mean / Longest Sleep Bout, Adj. Mean / Cumulative Total sleep, Adj. Mean / Cumulative NREM sleep, Adj. Mean / Locomotor Activity Intensity, Adj. Mean: first 6 hr. post-treatment; for Cumulative Total sleep, Adj. Mean: NREM+REM; for Cumulative NREM sleep, Adj. Mean: adjusted difference from vehicle controls
Description: The compound of the present invention is tested in rats for its ability to increase the amount of sleep or decrease sleep interruption or both without undesired effects such as inhibition of REM sleep, waking motor impairment, and/or rebound insomnia. Test animals are continuously monitored by electro-encephalograms (EEG), electromyograms (EMG), and motion to measure cumulative nonREM sleep, cumulative total sleep, average sleep bout duration, longest sleep bout duration, rebound insomnia. REM sleep inhibition and locomotor activity intensity during wakefulness. Methods for such studies are known in the art (see for example methods described in Edgar D M, Seidel W F. Modafinil induces wakefulness without intensifying motor activity or subsequent rebound hypersomnolence in the rat. J Pharmacology & Experimental Therapeutics 1997; 283: 757-769; van Gelder R N, Edgar D M, Dement W C. Real-time automated sleep scoring: validation of a microcomputer-based system for mice. Sleep 1991, 14: 48-55; and Gross B A, Walsh C M, Turakhia A A, Booth V, Mashour G A, Poe G R. Open-source logic-based automated sleep scoring software using electrophysiological recordings in rats. J Neurosci Methods. 2009; 184(1):10-8.) Studies are conducted as follows:
Adult, male Wistar rats (approximately 270-300 g at time of surgery) are surgically fitted for chronic recording of EEG, EMG, and motion as follows: Rats are surgically prepared with a cranial implant consisting of four stainless steel screws for EEG recording (two frontal [3.9 mm anterior from bregma, and ±2.0 mm mediolaterally] and two occipital [6.4 mm posterior from bregma, ±5.5 mm mediolaterally]), and with two Teflon-coated stainless steel wires for EMG recording (positioned under the nuchal trapezoid muscles). All leads are soldered to a miniature connector (Microtech, Boothwyn, Pa.) prior to surgery. The implant assembly is affixed to the skull by the combination of the stainless steel EEG recording screws, cyanoacrylate applied between the implant connector and skull, and dental acrylic. Locomotor activity is monitored via a miniature transmitter (Minimitter PDT4000G, Philips Respironics, Bend, Oreg.) surgically placed into the abdomen. At least 3 weeks are allowed for recovery.
Each rat is housed individually within a microisolator cage modified with an inserted polycarbonate filter-top riser to allow more vertical headroom. A flexible cable that minimally restricts movement is connected at one end to a commutator afixed to the cage top and at the other end to the animal's cranial implant. Each cage is located within separate, ventilated compartments of a stainless steel sleep-wake recording chamber. Food and water are available ad libitum and the ambient temperature is maintained at about 23±1° C. A 24-hr light-dark cycle (LD 12:12) using fluorescent light is maintained throughout the study. Relative humidity averages approximately 50%. Animals are undisturbed for at least 30 hrs before and after each treatment.
The vehicle (placebo, methylcellulose 15 centipoise 0.25% in water) or one of the test compound dose levels is administered orally at 1 mL/kg pseudo-randomly such that no rat receives the same treatment twice, and no rat receives more than two of the 8 treatments in any one study. Each rat is removed from its cage for about a minute to be weighed and treated. At least 6 days “washout” period precede and follow each treatment. […]

SMILES: Cc1ccc2c(c1)Oc1sc(C)cc1C(N1CCN(CC(C)(C)C(=O)O)CC1)=N2 [Example 3, 3-[4-(2,8-Dimethylthieno[2,3-b][1,5]benzoxazepin-4-yl)piperazin-1-yl]-2,2-dimethyl-propanoic acid; 4-methylbenzenesulfonic acid]
- Rebound Insomnia, Adj. Mean (0.025 mg/kg PO): 0.3 min
- REM inhibition, Adj. Mean (0.025 mg/kg PO): -2.7 min
- Average Sleep Bout, Adj. Mean (0.025 mg/kg PO): 1.0 n-fold increase over vehicle controls
- Longest Sleep Bout, Adj. Mean (0.025 mg/kg PO): 1.0 n-fold increase over vehicle controls
- Cumulative Total sleep, Adj. Mean (0.025 mg/kg PO): -2.3 min
- Cumulative NREM sleep, Adj. Mean (0.025 mg/kg PO): 1.3 min
- Locomotor Activity Intensity, Adj. Mean (0.025 mg/kg PO): −0.1 LMA counts per minute of EEG-defined wakefulness
- Rebound Insomnia, Adj. Mean (0.25 mg/kg PO): 1.0 min
- REM inhibition, Adj. Mean (0.25 mg/kg PO): -1.5 min
- Average Sleep Bout, Adj. Mean (0.25 mg/kg PO): 1.6 n-fold increase over vehicle controls
- Longest Sleep Bout, Adj. Mean (0.25 mg/kg PO): 1.6 n-fold increase over vehicle controls
- Cumulative Total sleep, Adj. Mean (0.25 mg/kg PO): 33.5 min
- Cumulative NREM sleep, Adj. Mean (0.25 mg/kg PO): 34.3 min
- Locomotor Activity Intensity, Adj. Mean (0.25 mg/kg PO): −1.6 LMA counts per minute of EEG-defined wakefulness
- Rebound Insomnia, Adj. Mean (0.5 mg/kg PO): -0.3 min
- REM inhibition, Adj. Mean (0.5 mg/kg PO): 0.7 min
- Average Sleep Bout, Adj. Mean (0.5 mg/kg PO): 1.6 n-fold increase over vehicle controls
- Longest Sleep Bout, Adj. Mean (0.5 mg/kg PO): 2.1 n-fold increase over vehicle controls
- Cumulative Total sleep, Adj. Mean (0.5 mg/kg PO): 21.7 min
- Cumulative NREM sleep, Adj. Mean (0.5 mg/kg PO): 21.7 min
- Locomotor Activity Intensity, Adj. Mean (0.5 mg/kg PO): 0.0 LMA counts per minute of EEG-defined wakefulness
- Rebound Insomnia, Adj. Mean (1 mg/kg PO): -3.8 min
- REM inhibition, Adj. Mean (1 mg/kg PO): 0.1 min
- Average Sleep Bout, Adj. Mean (1 mg/kg PO): 1.7 n-fold increase over vehicle controls
- Longest Sleep Bout, Adj. Mean (1 mg/kg PO): 2.2 n-fold increase over vehicle controls
- Cumulative Total sleep, Adj. Mean (1 mg/kg PO): 30.8 min
- Cumulative NREM sleep, Adj. Mean (1 mg/kg PO): 31.9 min
- Locomotor Activity Intensity, Adj. Mean (1 mg/kg PO): −2.5 LMA counts per minute of EEG-defined wakefulness
- Rebound Insomnia, Adj. Mean (3 mg/kg PO): -1.3 min
- REM inhibition, Adj. Mean (3 mg/kg PO): -4.2 min
- Average Sleep Bout, Adj. Mean (3 mg/kg PO): 1.5 n-fold increase over vehicle controls
- Longest Sleep Bout, Adj. Mean (3 mg/kg PO): 1.9 n-fold increase over vehicle controls
- Cumulative Total sleep, Adj. Mean (3 mg/kg PO): 26.9 min
- Cumulative NREM sleep, Adj. Mean (3 mg/kg PO): 29.2 min
- Locomotor Activity Intensity, Adj. Mean (3 mg/kg PO): −2.6 LMA counts per minute of EEG-defined wakefulness
- Rebound Insomnia, Adj. Mean (10 mg/kg PO): 0.4 min
- REM inhibition, Adj. Mean (10 mg/kg PO): -12.1 min
- Average Sleep Bout, Adj. Mean (10 mg/kg PO): 1.7 n-fold increase over vehicle controls
- Longest Sleep Bout, Adj. Mean (10 mg/kg PO): 1.9 n-fold increase over vehicle controls
- Cumulative Total sleep, Adj. Mean (10 mg/kg PO): 32.8 min
- Cumulative NREM sleep, Adj. Mean (10 mg/kg PO): 36.7 min
- Locomotor Activity Intensity, Adj. Mean (10 mg/kg PO): −3.7 LMA counts per minute of EEG-defined wakefulness
- change in awake time following treatment, dose response curve (FIG. 2) (rat): does not result in rebound insomnia
- change in cumulative REM sleep time, dose response curve (FIG. 1) (rat): does not inhibit REM sleep
- change in distances moved during periods of wakefulness, dose response curve (FIG. 3) (rat): does not inhibit or stimulate normal activity
